# Measurements taken from paper PMC11012124, “Synthesis of Novel Triazine-Based Chalcones and 8,9-dihydro-7H-pyrimido[4,5-b][1,4]diazepines as Potential Leads in the Search of Anticancer, Antibacterial and Antifungal Agents” (International Journal of Molecular Sciences, 2024).
# Assays:
# SF-268 = test: cells; settings: Homo sapiens, SF-268, 48 h; for CC50: read-out: LC50
# HOP-62 = test: cells; settings: Homo sapiens, HOP-62, 48 h; for CC50: read-out: LC50
# NCI-H522 = test: cells; settings: Homo sapiens, NCI-H522, 48 h; for CC50: read-out: LC50
# MDA-MB-468 = test: cells; settings: Homo sapiens, MDA-MB-468, 48 h; for CC50: read-out: LC50
# 786-0 = test: cells; settings: Homo sapiens, 786-0, 48 h; for CC50: read-out: LC50
# KM12 = test: cells; settings: Homo sapiens, KM12, 48 h; for CC50: read-out: LC50
# SR = test: cells; settings: Homo sapiens, 48 h; for CC50: read-out: LC50
# HCT-15 = test: cells; settings: Homo sapiens, HCT-15, 48 h; for CC50: read-out: LC50
# NCI-H322M = test: cells; settings: Homo sapiens, 48 h; for CC50: read-out: LC50
# SK-MEL-2 = test: cells; settings: Homo sapiens, SK-MEL-2, 48 h; for CC50: read-out: LC50
# SK-MEL-5 = test: cells; settings: Homo sapiens, SK-MEL-5, 48 h; for CC50: read-out: LC50
# SNB-19 = test: cells; settings: Homo sapiens, SNB-19, 48 h; for CC50: read-out: LC50
# OVCAR-3 = test: cells; settings: Homo sapiens, OVCAR-3, 48 h; for CC50: read-out: LC50
# HT29 = test: cells; settings: Homo sapiens, HT-29, 48 h; for CC50: read-out: LC50
# CAKI-1 = test: cells; settings: Homo sapiens, CAKI-1, 48 h; for CC50: read-out: LC50
# UO-31 = test: cells; settings: Homo sapiens, UO-31, 48 h; for CC50: read-out: LC50
# T-47D = test: cells; settings: Homo sapiens, T47D, 48 h; for CC50: read-out: LC50
# DU-145 = test: cells; settings: Homo sapiens, DU-145, 48 h; for CC50: read-out: LC50
# [1] = test system: Trichophyton mentagrophytes (CCC 202-2000); test: Antifungal broth microdilution (CLSI); type: cell-based; settings: Tm: Trichophyton mentagrophytes
# Protocol: (§1) Several of the obtained triazine derivatives were evaluated against sensitive fungal species comprising of two yeasts (Candida albicans (ATCC 10231), Cryptococcus neoformans (ATCC 32264)), three dermatophytes (Microsporum gypseum (CCC 115), Trichophyton rubrum (CCC 134-2000), Trichophyton mentagrophytes (CCC 202-2000)), and three Aspergillus fungi ((A. [NT] 26934), A. niger (ATCC 9029), and A. flavus (ATCC 9170)). […] Broth microdilution techniques were performed in 96-well microplates according to the Reference Method for Broth Dilution Antifungal Susceptibility Testing of Yeasts, document M27-A3 [86] and of Filamentous Fungi […]-A8 [87]. […] An inoculum suspension (100 μL) was added to each well (final well volume = 200 μL). One growth control well (containing medium, inoculum, and the same amount of DMSO as used for each compound) and one sterility control well (sample, medium, and sterile water instead of inoculum) were included for each fungus tested. Microtiter plates were incubated in a dark, humid chamber at 30 °C for the time necessary for each fungus. Amphotericin B, Terbinafine, Fluconazole and Itraconazole were used as a positive control. The tests were performed in triplicate.
# A. flavus (ATCC 9170) = test: Antifungal broth microdilution (CLSI); type: cell-based; settings: ATCC9170; Afl: Aspergillus flavus
# Protocol: as §1
# UACC-62 = test: cells; settings: Homo sapiens, UACC-62, 48 h; for CC50: read-out: LC50
# COLO 205 = test: cells; settings: Homo sapiens, COLO 205, 48 h; for CC50: read-out: LC50
# SF-295 = test: cells; settings: Homo sapiens, SF-295, 48 h; for CC50: read-out: LC50
# OVCAR-4 = test: cells; settings: Homo sapiens, OVCAR-4, 48 h; for CC50: read-out: LC50
# U251 = test: cells; settings: Homo sapiens, U-251, 48 h; for GI50: U251, 48 h; for CC50: read-out: LC50
# NCI/ADR-RES = test: cells; settings: Homo sapiens, 48 h; for CC50: read-out: LC50
# [2] = test system: M. tuberculosis ATCC 27294; test: Antitubercular broth microdilution MIC; type: cell-based; settings: Mycobacterium tuberculosis; M. tuberculosis ATCC 27294 (H37Rv); read-out: Minimum inhibitory concentration (MIC)
# [3] = test system: N. gonorrhoeae ATCC 49226; test: MIC on GC agar plates; type: cell-based, Neisseria gonorrhoeae; settings: Neisseria gonorrhoeae, ATCC49226, read-out: MIC
# Summary of the method: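 N. gonorrhoeae (1 × 10^4 CFU) was spotted onto IsoVitaleX-supplemented (1%) GC agar containing graded compound levels. The lowest inhibitory concentration was recorded as the MIC, with oxidase testing used to verify growth, and each assay was done in duplicate on at least two separate occasions.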
smiles,measurement,setting,value
CN(C)c1nc(NCCNS(=O)(=O)c2ccc(C(=O)/C=C/c3ccc(Cl)cc3)cc2)nc(N2CCOCC2)n1 [23e],GI50,SF-268,17.7 µM
same,CC50,SF-268,> 100 µM
same,GI50,HOP-62,17.5 µM
same,CC50,HOP-62,65.8 µM
same,GI50,NCI-H522,14 µM
same,CC50,NCI-H522,53.3 µM
same,GI50,MDA-MB-468,11 µM
same,CC50,MDA-MB-468,56 µM
same,GI50,786-0,14.8 µM
same,CC50,786-0,55.9 µM
same,GI50,KM12,16.9 µM
same,CC50,KM12,> 100 µM
same,GI50,SR,2.52 µM
same,CC50,SR,> 100 µM
same,GI50,HCT-15,2.07 µM
same,CC50,HCT-15,9.93 µM
same,GI50,NCI-H322M,14.4 µM
same,CC50,NCI-H322M,52.4 µM
same,GI50,SK-MEL-2,16.5 µM
same,CC50,SK-MEL-2,56 µM
same,GI50,SK-MEL-5,16.3 µM
same,CC50,SK-MEL-5,55.6 µM
same,GI50,SNB-19,14.2 µM
same,CC50,SNB-19,52.1 µM
same,GI50,OVCAR-3,17.9 µM
same,CC50,OVCAR-3,70.5 µM
same,GI50,HT29,3.21 µM
same,CC50,HT29,36.4 µM
same,GI50,CAKI-1,11.2 µM
same,CC50,CAKI-1,54.7 µM
same,GI50,UO-31,11.4 µM
same,CC50,UO-31,48.4 µM
same,GI50,T-47D,16.7 µM
same,CC50,T-47D,> 100 µM
same,GI50,DU-145,17.2 µM
same,CC50,DU-145,67.3 µM
same,MIC,[1],> 250 µg/mL
same,MIC,A. flavus (ATCC 9170),> 250 µg/mL
same,GI50,UACC-62,11.4 µM
same,CC50,UACC-62,49.1 µM
same,GI50,COLO 205,16.7 µM
same,CC50,COLO 205,70.8 µM
same,GI50,SF-295,13.3 µM
same,CC50,SF-295,52.8 µM
same,GI50,OVCAR-4,14.7 µM
same,CC50,OVCAR-4,57.2 µM
same,GI50,U251,8.16 µM
same,CC50,U251,45.9 µM
CN(C)c1nc(NCCNS(=O)(=O)c2ccc(C3=Nc4c(N)nc(N)nc4NC(c4ccc(C(F)(F)F)cc4)C3)cc2)nc(N2CCOCC2)n1 (stereo not shown) [30g],GI50,SF-268,19.9 µM
same,CC50,SF-268,> 100 µM
same,GI50,HOP-62,50.7 µM
same,CC50,HOP-62,> 100 µM
same,GI50,NCI-H522,51.7 µM
same,CC50,NCI-H522,> 100 µM
same,GI50,MDA-MB-468,13.7 µM
same,CC50,MDA-MB-468,69.5 µM
same,GI50,786-0,20.8 µM
same,CC50,786-0,> 100 µM
same,GI50,KM12,37 µM
same,CC50,KM12,> 100 µM
same,GI50,SR,18.1 µM
same,CC50,SR,> 100 µM
same,GI50,HCT-15,30.9 µM
same,CC50,HCT-15,> 100 µM
same,GI50,NCI-H322M,45.4 µM
same,CC50,NCI-H322M,> 100 µM
same,GI50,SK-MEL-2,15.8 µM
same,CC50,SK-MEL-2,57.8 µM
same,GI50,SK-MEL-5,15.9 µM
same,CC50,SK-MEL-5,57.1 µM
same,GI50,SNB-19,30 µM
same,CC50,SNB-19,> 100 µM
same,GI50,OVCAR-3,53.9 µM
same,CC50,OVCAR-3,> 100 µM
same,GI50,HT29,19.8 µM
same,CC50,HT29,> 100 µM
same,GI50,CAKI-1,25.9 µM
same,CC50,CAKI-1,> 100 µM
same,GI50,UO-31,100 µM
same,CC50,UO-31,> 100 µM
same,GI50,T-47D,21.3 µM
same,CC50,T-47D,> 100 µM
same,GI50,DU-145,72 µM
same,CC50,DU-145,> 100 µM
same,MIC,[1],> 250 µg/mL
same,MIC,A. flavus (ATCC 9170),> 250 µg/mL
same,GI50,UACC-62,16.4 µM
same,CC50,UACC-62,81.1 µM
same,GI50,COLO 205,16.5 µM
same,CC50,COLO 205,76.2 µM
same,GI50,SF-295,21.1 µM
same,CC50,SF-295,> 100 µM
same,GI50,OVCAR-4,37 µM
same,CC50,OVCAR-4,> 100 µM
same,GI50,U251,24.2 µM
same,CC50,U251,> 100 µM
COc1cc(/C=C/C(=O)c2cc(OC)c(OC)c(OC)c2)ccc1Oc1nc(Nc2ccc(F)cc2)nc(N(C)C)n1 [21d],GI50,SF-268,3.43 µM
same,CC50,SF-268,> 100 µM
same,GI50,HOP-62,1.83 µM
same,CC50,HOP-62,8.22 µM
same,GI50,NCI-H522,1.47 µM
same,CC50,NCI-H522,7.11 µM
same,GI50,MDA-MB-468,1.35 µM
same,CC50,MDA-MB-468,9.11 µM
same,GI50,786-0,1.45 µM
same,CC50,786-0,7.19 µM
same,GI50,KM12,3.63 µM
same,CC50,KM12,> 100 µM
same,GI50,SR,0.7 µM
same,CC50,SR,> 100 µM
same,GI50,HCT-15,1.18 µM
same,CC50,HCT-15,6.39 µM
same,GI50,NCI-H322M,2.99 µM
same,CC50,NCI-H322M,> 100 µM
same,GI50,SK-MEL-2,1.69 µM
same,CC50,SK-MEL-2,8.47 µM
same,GI50,SK-MEL-5,2.16 µM
same,CC50,SK-MEL-5,12.2 µM
same,GI50,NCI/ADR-RES,1.42 µM
same,CC50,NCI/ADR-RES,8.08 µM
same,GI50,SNB-19,1.86 µM
same,CC50,SNB-19,18.5 µM
same,GI50,OVCAR-3,2.57 µM
same,CC50,OVCAR-3,> 100 µM
same,GI50,HT29,1.54 µM
same,CC50,HT29,8.22 µM
same,GI50,CAKI-1,1.98 µM
same,CC50,CAKI-1,25.1 µM
same,GI50,UO-31,1.12 µM
same,CC50,UO-31,4.96 µM
same,GI50,T-47D,1.87 µM
same,CC50,T-47D,> 100 µM
same,GI50,DU-145,3.99 µM
same,CC50,DU-145,67.9 µM
same,MIC,[1],> 250 µg/mL
same,MIC,A. flavus (ATCC 9170),> 250 µg/mL
same,GI50,UACC-62,1.41 µM
same,CC50,UACC-62,6.38 µM
same,GI50,COLO 205,4.45 µM
same,CC50,COLO 205,47.5 µM
same,GI50,SF-295,1.98 µM
same,CC50,SF-295,19.6 µM
same,GI50,OVCAR-4,2.07 µM
same,CC50,OVCAR-4,> 100 µM
same,GI50,U251,0.503 µM
same,CC50,U251,9.59 µM
CN(C)c1nc(NCCNS(=O)(=O)c2ccc(C3=Nc4c(N)nc(N)nc4NC(c4ccc(Cl)cc4)C3)cc2)nc(Nc2ccc(F)cc2)n1 (stereo not shown) [31e],GI50,SF-268,5.74 µM
same,CC50,SF-268,> 100 µM
same,GI50,HOP-62,> 100 µM
same,CC50,HOP-62,> 100 µM
same,GI50,NCI-H522,16 µM
same,CC50,NCI-H522,> 100 µM
same,GI50,MDA-MB-468,1.92 µM
same,CC50,MDA-MB-468,4.92 µM
same,GI50,786-0,6.21 µM
same,CC50,786-0,> 100 µM
same,GI50,KM12,3.98 µM
same,CC50,KM12,> 100 µM
same,GI50,HCT-15,> 100 µM
same,CC50,HCT-15,> 100 µM
same,GI50,NCI-H322M,> 100 µM
same,CC50,NCI-H322M,> 100 µM
same,GI50,SK-MEL-2,3.34 µM
same,CC50,SK-MEL-2,14 µM
same,GI50,SK-MEL-5,3.45 µM
same,CC50,SK-MEL-5,14.3 µM
same,GI50,NCI/ADR-RES,> 100 µM
same,CC50,NCI/ADR-RES,> 100 µM
same,GI50,SNB-19,5.67 µM
same,CC50,SNB-19,> 100 µM
same,GI50,OVCAR-3,7.45 µM
same,CC50,OVCAR-3,> 100 µM
same,GI50,HT29,2.68 µM
same,CC50,HT29,7.54 µM
same,GI50,CAKI-1,8.07 µM
same,CC50,CAKI-1,> 100 µM
same,GI50,UO-31,> 100 µM
same,CC50,UO-31,> 100 µM
same,GI50,T-47D,7.93 µM
same,CC50,T-47D,> 100 µM
same,MIC,[2],1.2 µg/mL
same,MIC,[3],0.5 µg/mL
same,GI50,DU-145,> 100 µM
same,CC50,DU-145,> 100 µM
same,GI50,UACC-62,6.46 µM
same,CC50,UACC-62,> 100 µM
same,GI50,COLO 205,5.65 µM
same,CC50,COLO 205,25.6 µM
same,GI50,SF-295,6.2 µM
same,CC50,SF-295,> 100 µM
same,CC50,OVCAR-4,> 100 µM
same,GI50,U251,5.14 µM
same,CC50,U251,> 100 µM
